The source of these data is patent US7598258B2, “Quinoline derivatives and quinazoline derivatives inhibiting autophosphorylation of macrophage colony stimulating factor receptor” (Kirin Beer Kabushiki Kaisha, priority 2002, dated 2009).

Each structure is given as a SMILES string.

In the test the target is T1, Human KDR (Homo sapiens, UniProt P35968).
T1 construct: expressed in transfected cells; host or cells: NIH3T3 cells (mouse fibroblasts)
Kind of test: Inhibition of KDR phosphorylation in human KDR-transfected NIH3T3 cells (ELISA).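 On Selection ratio (KDR phosphorylation IC50 / c-fms phosphorylation IC50): class 2 means ratio of 10 or more and class 3 means 50 or more.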 It counts as cell-based. The conditions noted are these: for Selection ratio (KDR phosphorylation IC50 / c-fms phosphorylation IC50): class 0-3; for IC50: human KDR-transfected NIH3T3 cells, VEGF 100 ng/ml, ELISA, read-out: KDR phosphorylation 50% inhibitory concentration (IC50). The essentials: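 NIH3T3 cells transfected with human KDR, in 0.1% FCS medium, treated with compound 1 hr at 37° C, then stimulated with VEGF 100 ng/ml for 2 min. Lysate KDR phosphorylation measured by anti-phosphotyrosine capture/anti-KDR ELISA (A450); IC50 from inhibition normalized between VEGF-stimulated and unstimulated wells.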

T1 sequence (P35968 20-1356): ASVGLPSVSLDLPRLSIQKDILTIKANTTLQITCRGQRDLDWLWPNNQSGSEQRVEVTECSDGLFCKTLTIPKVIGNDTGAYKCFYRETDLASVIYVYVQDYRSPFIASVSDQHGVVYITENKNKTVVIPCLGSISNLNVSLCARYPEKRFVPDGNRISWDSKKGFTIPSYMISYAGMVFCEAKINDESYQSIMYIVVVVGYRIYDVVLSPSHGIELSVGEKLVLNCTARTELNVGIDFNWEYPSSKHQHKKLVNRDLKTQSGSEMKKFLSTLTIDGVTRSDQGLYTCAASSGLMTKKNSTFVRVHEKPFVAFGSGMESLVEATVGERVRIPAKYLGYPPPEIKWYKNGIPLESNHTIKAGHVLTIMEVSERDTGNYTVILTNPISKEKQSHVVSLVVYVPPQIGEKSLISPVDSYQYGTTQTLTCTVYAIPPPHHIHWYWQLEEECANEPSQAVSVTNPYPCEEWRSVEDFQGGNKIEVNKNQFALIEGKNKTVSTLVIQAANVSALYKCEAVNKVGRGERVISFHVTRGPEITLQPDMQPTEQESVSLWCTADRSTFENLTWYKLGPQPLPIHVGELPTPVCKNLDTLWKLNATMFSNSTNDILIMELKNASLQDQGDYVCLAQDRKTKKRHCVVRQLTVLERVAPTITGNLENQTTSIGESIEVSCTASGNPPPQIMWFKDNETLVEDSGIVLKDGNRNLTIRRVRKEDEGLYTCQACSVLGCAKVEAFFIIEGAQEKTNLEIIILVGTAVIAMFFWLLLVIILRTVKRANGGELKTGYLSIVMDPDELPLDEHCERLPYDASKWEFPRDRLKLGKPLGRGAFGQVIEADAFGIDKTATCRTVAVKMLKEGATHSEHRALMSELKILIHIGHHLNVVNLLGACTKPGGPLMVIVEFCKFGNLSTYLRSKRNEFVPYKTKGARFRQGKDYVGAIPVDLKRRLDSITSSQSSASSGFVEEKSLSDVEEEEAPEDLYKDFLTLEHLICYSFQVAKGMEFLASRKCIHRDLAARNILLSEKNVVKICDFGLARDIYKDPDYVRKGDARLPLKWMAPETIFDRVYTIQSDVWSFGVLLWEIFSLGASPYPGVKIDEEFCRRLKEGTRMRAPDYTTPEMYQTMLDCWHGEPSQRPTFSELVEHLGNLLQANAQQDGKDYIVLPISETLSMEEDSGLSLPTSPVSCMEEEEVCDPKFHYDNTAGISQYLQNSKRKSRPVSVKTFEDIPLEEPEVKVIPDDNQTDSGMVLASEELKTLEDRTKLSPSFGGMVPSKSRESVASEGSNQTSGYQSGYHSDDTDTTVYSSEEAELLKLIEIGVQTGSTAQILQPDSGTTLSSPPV

In the case of `COc1cc2nccc(Oc3ccc(NC(=O)N[C@H](C)c4nccs4)c(F)c3)c2cc1OC` [Example 72, N-{4-[(6,7-Dimethoxy-4-quinolyl)oxy]-2-fluorophenyl}-N′-[(1R)-1-(1,3-thiazol-2-yl)ethyl]urea], the “Selection ratio (KDR phosphorylation IC50 / c-fms phosphorylation IC50)” value is listed as 1 (when the value was 5 or more) and the IC50 came to 35.6 nM.
On to `COc1cc2nccc(Oc3ccc(NC(=O)NC(C)c4nccs4)cc3F)c2cc1OC` (stereo not drawn) [Example 73, N-{4-[(6,7-Dimethoxy-4-quinolyl)oxy]-3-fluorophenyl}-N′-[1-(1,3-thiazol-2-yl)ethyl]urea], for which the “Selection ratio (KDR phosphorylation IC50 / c-fms phosphorylation IC50)” value is given as 2 (when the value was 10 or more) and the IC50 was 43.3 nM.
For the molecule `COc1cc2nccc(Oc3ccc(NC(=O)NC(C)c4nccs4)cc3)c2cc1OC` (stereo not drawn) [Example 77, N-{4-[(6,7-Dimethoxy-4-quinolyl)oxy]phenyl}-N′-[1-(1,3-thiazol-2-yl)ethyl]urea], the “Selection ratio (KDR phosphorylation IC50 / c-fms phosphorylation IC50)” value is 2 (when the value was 10 or more) and the IC50 is 101 nM.
As for `COc1cc2nccc(Oc3ccc(NC(=O)N[C@@H](C)c4nccs4)cc3)c2cc1OC` [Example 78, N-{4-[(6,7-Dimethoxy-4-quinolyl)oxy]phenyl}-N′-[(S)-1-(1,3-thiazol-2-yl)ethyl]urea], the “Selection ratio (KDR phosphorylation IC50 / c-fms phosphorylation IC50)” value is 2 (when the value was 10 or more) and the IC50 was found to be 53.9 nM.
As for `COc1cc2nccc(Oc3ccc(NC(=O)N[C@H](C)c4nccs4)cc3)c2cc1OC` [Example 79, N-{4-[(6,7-Dimethoxy-4-quinolyl)oxy]phenyl}-N′-[(1R)-1-(1,3-thiazol-2-yl)ethyl]urea], the “Selection ratio (KDR phosphorylation IC50 / c-fms phosphorylation IC50)” value is given as 2 (when the value was 10 or more) and the IC50 was found to be 95.2 nM.
As for `COc1cc2nccc(Oc3ccc(NC(=O)NC(C)c4nccs4)cc3OC)c2cc1OC` (stereo not drawn) [Example 80, N-{4-[(6,7-Dimethoxy-4-quinolyl)oxy]-3-methoxyphenyl}-N′-[1-(1,3-thiazol-2-yl)ethyl]urea], the “Selection ratio (KDR phosphorylation IC50 / c-fms phosphorylation IC50)” value is reported as 3 (when the value was 50 or more) and the IC50 turned out to be 526 nM.
The like results for `COc1cc2nccc(Oc3ccc(NC(=O)N[C@@H](C)c4nccs4)cc3OC)c2cc1OC` [Example 81, N-{4-[(6,7-Dimethoxy-4-quinolyl)oxy]-3-methoxyphenyl}-N′-[(1S)-1-(1,3-thiazol-2-yl)ethyl]urea] were, in that order, 3 (when the value was 50 or more) and 1050 nM.
Turning to `COc1cc2nccc(Oc3ccc(NC(=O)N[C@H](C)c4nccs4)cc3OC)c2cc1OC` [Example 82, N-{4-[(6,7-Dimethoxy-4-quinolyl)oxy]-3-methoxyphenyl}-N′-[(1R)-1-(1,3-thiazol-2-yl)ethyl]urea], the “Selection ratio (KDR phosphorylation IC50 / c-fms phosphorylation IC50)” value was 3 (when the value was 50 or more) and the IC50 amounted to 650 nM.
The like results for `COc1cc2nccc(Oc3ccc(NC(=O)NC(C)c4nccs4)c(C(F)(F)F)c3)c2cc1OC` (stereo not drawn) [Example 83, N-[4-[(6,7-Dimethoxy-4-quinolyl)oxy]-2-(trifluoromethyl)phenyl]-N′-[1-(1,3-thiazol-2-yl)ethyl]urea] were, in that order, 0 (KDR phosphorylation 50% inhibitory concentration [μM]/c-fms phosphorylation 50% inhibitory concentration [μM] was less than 5) and 7.9 nM.
Turning to `COc1cc2nccc(Oc3ccc(NC(=O)N[C@@H](C)c4nccs4)c(C(F)(F)F)c3)c2cc1OC` [Example 84, N-[4-[(6,7-Dimethoxy-4-quinolyl)oxy]-2-(trifluoromethyl)phenyl]-N′-[(1S)-1-(1,3-thiazol-2-yl)ethyl]urea], the “Selection ratio (KDR phosphorylation IC50 / c-fms phosphorylation IC50)” value is reported as 3 (when the value was 50 or more) and the IC50 is 661 nM.
As for `COc1cc2nccc(Oc3ccc(NC(=O)N[C@H](C)c4nccs4)c(C(F)(F)F)c3)c2cc1OC` [Example 85, N-[4-[(6,7-Dimethoxy-4-quinolyl)oxy]-2-(trifluoromethyl)phenyl]-N′-[(1R)-1-(1,3-thiazol-2-yl)ethyl]urea], the “Selection ratio (KDR phosphorylation IC50 / c-fms phosphorylation IC50)” value is 0 (KDR phosphorylation 50% inhibitory concentration [μM]/c-fms phosphorylation 50% inhibitory concentration [μM] was less than 5) and the IC50 was determined as 21.6 nM.
The like results for `COc1cc2nccc(Oc3cc(C)c(NC(=O)N[C@@H](C)c4nccs4)cc3C)c2cc1OC` [Example 86, N-{4-[(6,7-Dimethoxy-4-quinolyl)oxy]-2,5-dimethylphenyl}-N′-[(1S)-1-(1,3-thiazol-2-yl)ethyl]urea] were, in that order, 2 (when the value was 10 or more) and 208 nM.
For `COc1cc2nccc(Oc3cc(C)c(NC(=O)N[C@H](C)c4nccs4)cc3C)c2cc1OC` [Example 87, N-{4-[(6,7-Dimethoxy-4-quinolyl)oxy]-2,5-dimethylphenyl}-N′-[(1R)-1-(1,3-thiazol-2-yl)ethyl]urea], the “Selection ratio (KDR phosphorylation IC50 / c-fms phosphorylation IC50)” value was 2 (when the value was 10 or more) and the IC50 amounted to 273 nM.
Take `COc1cc2nccc(Oc3ccc(NC(=O)NC(C)c4nc(C)cs4)c(F)c3)c2cc1OC` (stereo not drawn) [Example 88, N-{4-[(6,7-Dimethoxy-4-quinolyl)oxy]-2-fluorophenyl}-N′-[1-(4-methyl-1,3-thiazol-2-yl)ethyl]urea]: the “Selection ratio (KDR phosphorylation IC50 / c-fms phosphorylation IC50)” value is 0 (KDR phosphorylation 50% inhibitory concentration [μM]/c-fms phosphorylation 50% inhibitory concentration [μM] was less than 5) and the IC50 was found to be 8.7 nM.
The like results for `COc1cc2nccc(Oc3ccc(NC(=O)NC(C)c4nc(C)cs4)cc3F)c2cc1OC` (stereo not drawn) [Example 89, N-{4-[(6,7-Dimethoxy-4-quinolyl)oxy]-3-fluorophenyl}-N′-[1-(4-methyl-1,3-thiazol-2-yl)ethyl]urea] were, in that order, 1 (when the value was 5 or more) and 17.4 nM.
As to `COc1cc(Oc2ccnc3cc(OC)c(OC)cc23)ccc1NC(=O)NC(C)c1nc(C)cs1` (stereo not drawn) [Example 90, N-{4-[(6,7-Dimethoxy-4-quinolyl)oxy]-2-methoxyphenyl}-N′-[1-(4-methyl-1,3-thiazol-2-yl)ethyl]urea], the “Selection ratio (KDR phosphorylation IC50 / c-fms phosphorylation IC50)” value is 2 (when the value was 10 or more) and the IC50 is 111 nM.
For `COc1cc2nccc(Oc3ccc(NC(=O)NC(C)c4nc(C)cs4)cc3)c2cc1OC` (stereo not drawn) [Example 91, N-{4-[(6,7-Dimethoxy-4-quinolyl)oxy]phenyl}-N′-[1-(4-methyl-1,3-thiazol-2-yl)ethyl]urea] the same measures were 1 (when the value was 5 or more) and 28.8 nM.
`COc1cc2nccc(Oc3ccc(NC(=O)NC(C)c4nc(C)cs4)c(C(F)(F)F)c3)c2cc1OC` (stereo not drawn) [Example 92, N-[4-[(6,7-Dimethoxy-4-quinolyl)oxy]-2-(trifluoromethyl)phenyl]-N′-[1-(4-methyl-1,3-thiazol-2-yl)ethyl]urea]: the “Selection ratio (KDR phosphorylation IC50 / c-fms phosphorylation IC50)” value was 0 (KDR phosphorylation 50% inhibitory concentration [μM]/c-fms phosphorylation 50% inhibitory concentration [μM] was less than 5) and the IC50 was determined as 4.3 nM.
Consider `COc1cc2nccc(Oc3cc(C)c(NC(=O)NC(C)c4nc(C)cs4)cc3C)c2cc1OC` (stereo not drawn) [Example 93, N-{4-[(6,7-Dimethoxy-4-quinolyl)oxy]-2,5-dimethylphenyl}-N′-[1-(4-methyl-1,3-thiazol-2-yl)ethyl]urea], for which the “Selection ratio (KDR phosphorylation IC50 / c-fms phosphorylation IC50)” value was 1 (when the value was 5 or more) and the IC50 was 268 nM.
With `COc1cc(Oc2ccnc3cc(OC)c(OC)cc23)ccc1NC(=O)NC(C)c1nc(C)c(C)s1` (stereo not drawn) [Example 99, N-{4-[(6,7-Dimethoxy-4-quinolyl)oxy]-2-methoxyphenyl}-N′-[1-(4,5-dimethyl-1,3-thiazol-2-yl)ethyl]urea], the “Selection ratio (KDR phosphorylation IC50 / c-fms phosphorylation IC50)” value is listed as 2 (when the value was 10 or more) and the IC50 was found to be 292 nM.
Turning to `COc1cc2nccc(Oc3ccc(NC(=O)NC(C)c4ncc(C)s4)cc3)c2cc1OC` (stereo not drawn) [Example 100, N-{4-[(6,7-Dimethoxy-4-quinolyl)oxy]phenyl}-N′-[1-(5-methyl-1,3-thiazol-2-yl)ethyl]urea], the “Selection ratio (KDR phosphorylation IC50 / c-fms phosphorylation IC50)” value was 2 (when the value was 10 or more) and the IC50 came out at 311 nM.
Regarding `COc1cc2nccc(Oc3ccc(NC(=O)NC(C)c4ncc(C)s4)c(F)c3)c2cc1OC` (stereo not drawn) [Example 101, N-{4-[(6,7-Dimethoxy-4-quinolyl)oxy]-2-fluorophenyl}-N′-[1-(5-methyl-1,3-thiazol-2-yl)ethyl]urea], the “Selection ratio (KDR phosphorylation IC50 / c-fms phosphorylation IC50)” value is on record as 2 (when the value was 10 or more) and the IC50 was 239 nM.
In the case of `COc1cc2nccc(Oc3ccc(NC(=O)NC(C)c4ncc(C)s4)cc3F)c2cc1OC` (stereo not drawn) [Example 102, N-{4-[(6,7-Dimethoxy-4-quinolyl)oxy]-3-fluorophenyl}-N′-[1-(5-methyl-1,3-thiazol-2-yl)ethyl]urea], the “Selection ratio (KDR phosphorylation IC50 / c-fms phosphorylation IC50)” value is 2 (when the value was 10 or more) and the IC50 was determined as 219 nM.
Consider `COc1cc2nccc(Oc3ccc(NC(=O)NC(C)c4ncc(C)s4)c(C)c3)c2cc1OC` (stereo not drawn) [Example 103, N-{4-[(6,7-Dimethoxy-4-quinolyl)oxy]-2-methylphenyl}-N′-[1-(5-methyl-1,3-thiazol-2-yl)ethyl]urea], for which the “Selection ratio (KDR phosphorylation IC50 / c-fms phosphorylation IC50)” value is 0 (KDR phosphorylation 50% inhibitory concentration [μM]/c-fms phosphorylation 50% inhibitory concentration [μM] was less than 5) and the IC50 is 90.9 nM.
